In the OligoGym collection:
HELM strings list units from the 5' end as sugar, base in round brackets, then linkage (d deoxyribose, r ribose, m 2'-O-methyl, p phosphodiester). Strings are as the collection lists them; they lack the last nucleoside at the 3' end of the tested compound. [moe] = 2'-O-(2-methoxyethyl) (MOE); [sp] = phosphorothioate linkage; [m5C] = 5-methylcytosine

Molecular target: SCN2A
Test: mouse, dose not given
Settings: ASO

| Substance | 3 h FOB score [score 0-7] |
| --- | --- |
| RNA1{[moe](G)[sp].[moe](A)p.[moe]([m5C])p.[moe](A)p.[moe](T)p.d(A)[sp].d(T)[sp].d(T)[sp].d(T)[sp].d(T)[sp].d(T)[sp].d([m5C])[sp].d(T)[sp].d(A)[sp].d([m5C])[sp].[moe](A)p.[moe]([m5C])p.[moe](T)[sp].[moe](G)}$$$$ (last 3' nucleoside missing) | 1.67 |
| RNA1{[moe]([m5C])[sp].[moe]([m5C])p.[moe](A)p.[moe](T)p.[moe](T)p.[moe](T)p.d([m5C])[sp].d(T)[sp].d(A)[sp].d(T)[sp].d(A)[sp].d(A)[sp].d([m5C])[sp].d(T)[sp].d([m5C])[sp].d(A)[sp].[moe](G)p.[moe]([m5C])[sp].[moe](A)}$$$$ (last 3' nucleoside missing) | 0 |
| RNA1{[moe](A)[sp].[moe](T)p.[moe](A)p.[moe](T)p.[moe](T)p.d(T)[sp].d(T)[sp].d(T)[sp].d([m5C])[sp].d(T)[sp].d(A)[sp].d([m5C])[sp].d(A)[sp].d([m5C])[sp].d(T)[sp].[moe](G)p.[moe]([m5C])p.[moe](T)[sp].[moe](G)}$$$$ (last 3' nucleoside missing) | 1 |
| RNA1{[moe](A)[sp].[moe](T)p.[moe](G)p.[moe]([m5C])p.[moe](A)p.[moe](T)p.d(A)[sp].d(A)[sp].d(T)[sp].d([m5C])[sp].d([m5C])[sp].d([m5C])[sp].d(A)[sp].d(T)[sp].d(T)[sp].d(A)[sp].[moe](T)p.[moe](A)[sp].[moe]([m5C])}$$$$ (last 3' nucleoside missing) | 0 |
| RNA1{[moe]([m5C])[sp].[moe]([m5C])p.[moe](A)p.[moe](T)p.d(T)[sp].d(T)[sp].d([m5C])[sp].d(T)[sp].d(A)[sp].d(T)[sp].d(A)[sp].d(A)[sp].d([m5C])[sp].d(T)[sp].[moe]([m5C])p.[moe](A)p.[moe](G)p.[moe]([m5C])[sp].[moe](A)}$$$$ (last 3' nucleoside missing) | 0 |
| RNA1{[moe](T)[sp].[moe](A)p.[moe](T)p.[moe](T)p.d(T)[sp].d(T)[sp].d(A)[sp].d(T)[sp].d(A)[sp].d(A)[sp].d(A)[sp].d(T)[sp].d(G)[sp].d([m5C])[sp].[moe]([m5C])p.[moe](G)p.[moe](A)p.[moe]([m5C])[sp].[moe](T)}$$$$ (last 3' nucleoside missing) | 2.67 |
| RNA1{[moe](T)[sp].[moe](G)p.[moe]([m5C])p.[moe](A)[sp].d(T)[sp].d(G)[sp].d(T)[sp].d(A)[sp].d(A)[sp].d([m5C])[sp].d([m5C])[sp].d(T)[sp].[moe](T)p.[moe](T)p.[moe](A)p.[moe](T)[sp].[moe](A)}$$$$ (last 3' nucleoside missing) | 0 |
| RNA1{[moe]([m5C])[sp].[moe]([m5C])p.[moe](A)p.[moe](G)p.d(T)[sp].d(T)[sp].d(T)[sp].d(T)[sp].d(T)[sp].d(T)[sp].d([m5C])[sp].d(A)[sp].d(T)[sp].d(T)[sp].[moe](G)p.[moe]([m5C])p.[moe](A)p.[moe](T)[sp].[moe]([m5C])}$$$$ (last 3' nucleoside missing) | 0 |
| RNA1{[moe](G)[sp].[moe]([m5C])p.[moe](A)p.[moe](T)p.[moe](A)p.[moe](A)p.d(T)[sp].d([m5C])[sp].d([m5C])[sp].d([m5C])[sp].d(A)[sp].d(T)[sp].d(T)[sp].d(A)[sp].d(T)[sp].d(A)[sp].[moe]([m5C])p.[moe](A)[sp].[moe](A)}$$$$ (last 3' nucleoside missing) | 0 |
| RNA1{[moe](A)[sp].[moe](T)p.[moe](T)p.[moe](T)p.[moe]([m5C])p.d(T)[sp].d(A)[sp].d(T)[sp].d(A)[sp].d(A)[sp].d([m5C])[sp].d(T)[sp].d([m5C])[sp].d(A)[sp].d(G)[sp].[moe]([m5C])p.[moe](A)p.[moe](A)[sp].[moe]([m5C])}$$$$ (last 3' nucleoside missing) | 0 |
| RNA1{[moe]([m5C])[sp].[moe](A)p.[moe](G)p.[moe](T)p.d(T)[sp].d(T)[sp].d(T)[sp].d(T)[sp].d(T)[sp].d([m5C])[sp].d(A)[sp].d(T)[sp].d(T)[sp].d(G)[sp].[moe]([m5C])p.[moe](A)p.[moe](T)p.[moe]([m5C])[sp].[moe]([m5C])}$$$$ (last 3' nucleoside missing) | 2 |
| RNA1{[moe]([m5C])[sp].[moe](A)p.[moe](T)p.[moe](G)p.d(T)[sp].d(A)[sp].d(A)[sp].d(T)[sp].d([m5C])[sp].d(A)[sp].d([m5C])[sp].d(T)[sp].d(T)[sp].d(T)[sp].[moe]([m5C])p.[moe](A)p.[moe](T)p.[moe]([m5C])[sp].[moe]([m5C])}$$$$ (last 3' nucleoside missing) | 0 |
| RNA1{[moe]([m5C])[sp].[moe](T)p.[moe](G)p.[moe]([m5C])p.[moe](A)p.d(T)[sp].d(G)[sp].d(T)[sp].d(A)[sp].d(A)[sp].d([m5C])[sp].d([m5C])[sp].d(T)[sp].d(T)[sp].d(T)[sp].[moe](A)p.[moe](T)p.[moe](A)[sp].[moe]([m5C])}$$$$ (last 3' nucleoside missing) | 0 |
| RNA1{[moe]([m5C])[sp].[moe](A)p.[moe](G)p.[moe]([m5C])p.d(A)[sp].d(T)[sp].d(A)[sp].d(T)[sp].d(T)[sp].d([m5C])[sp].d(T)[sp].d(A)[sp].d(A)[sp].d([m5C])[sp].[moe](A)p.[moe](T)p.[moe](G)p.[moe](G)[sp].[moe](T)}$$$$ (last 3' nucleoside missing) | 0 |
| RNA1{[moe]([m5C])[sp].[moe](A)p.[moe]([m5C])p.[moe](G)p.[moe](A)p.d([m5C])[sp].d(A)[sp].d(T)[sp].d(A)[sp].d(T)[sp].d(T)[sp].d(T)[sp].d(T)[sp].d(T)[sp].d([m5C])[sp].[moe](T)p.[moe](A)p.[moe]([m5C])[sp].[moe](A)}$$$$ (last 3' nucleoside missing) | 0 |
| RNA1{[moe]([m5C])[sp].[moe]([m5C])p.[moe](A)p.[moe](G)p.[moe](T)p.d(T)[sp].d(T)[sp].d(T)[sp].d(T)[sp].d(T)[sp].d([m5C])[sp].d(A)[sp].d(T)[sp].d(T)[sp].d(G)[sp].[moe]([m5C])p.[moe](A)p.[moe](T)[sp].[moe]([m5C])}$$$$ (last 3' nucleoside missing) | 1.33 |
| RNA1{[moe]([m5C])[sp].[moe](A)p.[moe](T)p.[moe](T)p.[moe](T)p.[moe]([m5C])p.d(T)[sp].d(A)[sp].d(T)[sp].d(A)[sp].d(A)[sp].d([m5C])[sp].d(T)[sp].d([m5C])[sp].d(A)[sp].d(G)[sp].[moe]([m5C])p.[moe](A)[sp].[moe](A)}$$$$ (last 3' nucleoside missing) | 0 |
| RNA1{[moe](T)[sp].[moe]([m5C])p.[moe](T)p.[moe](G)p.d([m5C])[sp].d(A)[sp].d(T)[sp].d(G)[sp].d(T)[sp].d(A)[sp].d(A)[sp].d([m5C])[sp].d([m5C])[sp].d(T)[sp].[moe](T)p.[moe](T)p.[moe](A)p.[moe](T)[sp].[moe](A)}$$$$ (last 3' nucleoside missing) | 1 |
| RNA1{[moe](A)[sp].[moe](T)p.[moe]([m5C])p.[moe](A)p.[moe](T)p.d(G)[sp].d([m5C])[sp].d(A)[sp].d(T)[sp].d(A)[sp].d(A)[sp].d(T)[sp].d([m5C])[sp].d([m5C])[sp].d([m5C])[sp].[moe](A)p.[moe](T)p.[moe](T)[sp].[moe](A)}$$$$ (last 3' nucleoside missing) | 0 |
